In ChEMBL document CHEMBL2390930, “Design, synthesis and evaluation of 1,2-benzisothiazol-3-one derivatives as potent caspase-3 inhibitors” (Bioorg Med Chem, 2013) one finds IC50 data, which are given here for five compounds.

Each structure is given as a SMILES string.

The experiment addresses T1, Caspase-3 (Homo sapiens, UniProt P42574).
T1 sequence (P42574 whole entry): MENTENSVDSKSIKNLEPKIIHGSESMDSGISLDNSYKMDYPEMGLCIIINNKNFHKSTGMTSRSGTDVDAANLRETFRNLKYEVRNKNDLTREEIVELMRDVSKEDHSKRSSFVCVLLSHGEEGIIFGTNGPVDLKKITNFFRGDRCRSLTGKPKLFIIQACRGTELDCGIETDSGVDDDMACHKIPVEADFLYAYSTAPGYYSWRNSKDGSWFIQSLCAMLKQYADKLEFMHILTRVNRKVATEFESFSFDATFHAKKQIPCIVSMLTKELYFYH
The experiment in a line: Inhibition of recombinant human caspase-3 using Ac-LDEVD-AMC as substrate assessed as accumulation of 7-AMC incubated for 10 mins followed by substrate addition measured for 10 mins by fluorimetric analysis.
Take `O=C(NCc1ccccc1)n1sc2ccccc2c1=O`: the 50% inhibitory concentration (IC50) is 86 nM. For `O=C(Nc1ccc(I)cc1)n1sc2ccccc2c1=O` the value was more than 100000 nM; for `Cc1ccc(-n2sc3ccccc3c2=O)cc1`, 466 nM; for `O=c1c2ccccc2sn1-c1ccccc1`, 533 nM.

Consider `Cn1sc2ccccc2c1=O`, for which the IC50 amounted to 42400 nM.

In general, IC50 refers to the concentration at which inhibition is half-maximal.
